From patent US20130136827A1, “Method and Composition for Increasing The Proportion of Dietary Ingredients That Are Resistant To Degradation by Ruminal Microorganisms” (priority 2011, published 2013)

Assays:
[1] = test system: ruminal microbes; test: In situ ruminal incubation of samples in Dacron bags for 24 hours
Description: The in situ procedure utilizes small in situ bags made of a nitrogen-free synthetic polyester fabric (Dacron®; Ankom Technology, Mecedon, N.Y.) that has a 50 μm pore size. The pores are sufficiently small such that when feed materials are placed into the bag the contents are retained. The pore size also is large enough to allow for entry of microorganisms into the bag when placed into the rumen, thus exposing the contents to the degradative actions of ruminal microbes. Disappearance of feed particles from the bag is presumed to be due to microbial fermentative activity whilst the bag and its contents are suspended within the rumen environment. In situ assays provide useful information regarding the susceptibility of feeds to microbial digestion within the rumen.
The test procedure consisted of adding 12 g of sample (as is) to Dacron bags, which then were heat sealed and subsequently placed into the rumen and allowed to incubate for 24 hours. Bags then were removed from the rumen, dried and weighed to determine disappearance of dry matter. Concentrations of protein, total fatty acids, and fatty acid profile were determined for the residue from each sample. Samples were prepared in duplicate within each animal, along with blank bags for correction, and six animals were used. Three cattle were fed a high-concentrate diet and 3 were fed a high-forage, i.e., low concentrate diet.
These values were used to calculate the extent of dry matter and nutrient disappearance during the in situ digestion procedure.

[2] = test system: microorganisms within the rumen ecosystem; settings: Montgomery et al., J Anim Sci. 86(3):640-50; cited from earlier work

| SMILES | ruminally degraded / disappearance of dry matter, over Low and High concentrate groups ([1]; 24-hour period of ruminal incubation, text summary of Table VII) [%] | In situ dry matter disappearance (%), Mean ([1]; 24 hours of ruminal incubation, average of Low and High concentrate groups) [%] | In situ dry matter disappearance (%), High Concentrate ([1]; 24 hours of ruminal incubation, cattle on high-concentrate diet) [%] | In situ dry matter disappearance (%), Low Concentrate ([1]; 24 hours of ruminal incubation, cattle on high-forage/low concentrate diet) [%] | dietary ALA available for absorption in the postruminal digestive tract [2] |
| --- | --- | --- | --- | --- | --- |
| Cl.NCCCC[C@H](N)C(=O)O [Lysine, lysine hydrochloride] | ≥ 99.83 | 99.86 | 99.83 | 99.88 |  |
| CC/C=C\C/C=C\C/C=C\CCCCCCCC(=O)O [ALA, Alpha-linolenic acid] |  |  |  |  | less than 5% |
